Legend:
[1] = system: Rat brain microvascular endothelial cells (RBMECs); assay: Endothelial cell uptake of GLP-1-FAM; type: cell-based
Description: Rat brain microvascular endothelial cells (RBMECs; Cell Applications, San Diego, CA, United States) were cultured on a cover slip in rat brain endothelial cell growth medium. After reaching confluency, cells were pre-treated with vehicle (PSS buffer), exendin 9-39 (10 nM) or H89 (Sigma-Aldrich, St. Louis, MO, United States) (10 μM) for 30 min or forskolin (Sigma-Aldrich, St. Louis, MO, United States) (10 μM) for 5 min. Cells were then incubated with GLP-1-FAM at either 10, 100 or 1,000 pM for 3 min at 37°C. DAPI was used to stain the nucleus. After fixation and washing three times with cold TBST (5 min each time), cell images were captured using confocal microscope and fluorescence intensity measured using ImageJ software^1. FAM signal from surface binding of FAM was examined by incubating cells with GLP-1-FAM at 4 or 37°C for 3 min, or free FAM (10, 100, and 1,000 pM) at 37°C for 3 min.
FIGURE 5 GLP-1 uptake by RBMECs is GLP-1 receptor and PKA dependent. RBMECs were pretreated with vehicle (PSS buffer, A,E,I), Exendin 9-39 (10 nM, B,F,J) or H89 (10 μM, C,G,K) for 30 min. Cells were then incubated with GLP-1-FAM at 10, 100 pM or 1 nM for 3 min. DAPI was used to stain the nucleus. Images were captured using confocal microscope. Fluorescence density was analyzed using ImageJ. (D,H,L) Quantitative analysis (n = 3, *p < 0.01, vs. vehicle, Student’s t test). GLP-1R – GLP-1 receptor.
FIGURE 6 cAMP agonist increases GLP-1 uptake by RBMECs. (A) RBMECs were incubated with GLP-1-FAM at 10 pM for 3 min with or without 10 μM forskolin. DAPI was used to stain the nucleus. Images was captured using confocal microscope. Fluorescence density was analyzed using ImageJ. (B) quantitative analysis of the images (n = 6, *p < 0.05, vs. vehicle, Student’s t test).

[2] = molecular target: T1, GLP-1 receptor (Rattus norvegicus, UniProt P32301); assay: Effect of GLP-1 receptor antagonist infusion on brain uptake of labeled GLP-1 or exendin-4; type: in vivo; settings: exendin-(9-39) 30 nmol/kg/min for 20 min
T1 construct: from tissue; host or cells: live rat; brain regions (cerebellum, cortex, hippocampus, hypothalamus, brain stem) and brain microvasculature
T1 sequence (P32301 22-463): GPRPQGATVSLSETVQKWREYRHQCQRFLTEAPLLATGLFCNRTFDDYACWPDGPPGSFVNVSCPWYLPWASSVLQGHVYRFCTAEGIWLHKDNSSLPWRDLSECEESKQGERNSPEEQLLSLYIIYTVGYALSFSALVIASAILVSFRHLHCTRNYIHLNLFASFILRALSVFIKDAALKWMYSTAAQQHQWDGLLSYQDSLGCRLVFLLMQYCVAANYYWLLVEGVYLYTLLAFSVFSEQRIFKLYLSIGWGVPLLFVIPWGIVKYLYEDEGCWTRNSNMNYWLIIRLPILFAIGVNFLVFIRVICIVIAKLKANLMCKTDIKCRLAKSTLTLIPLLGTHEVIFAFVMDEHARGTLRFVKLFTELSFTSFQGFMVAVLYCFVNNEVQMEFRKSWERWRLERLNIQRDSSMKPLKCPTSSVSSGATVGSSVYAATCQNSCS
Description: Rats received a systemic infusion of either saline or exendin-(9-39) (GLP-1 receptor antagonist, 30 nmol/kg/min, Abcam, Cambridge, United Kingdom) via the jugular vein catheter for 20 min (Figure 1A). In the last 10 min, rats also received 30 pmol/kg/min of either GLP-1-FAM (AnaSpec, Fremont, CA, United States) or exendin-4-FAM (AnaSpec, Fremont, CA, United States) together with Dextran-TRITC (Sigma-Aldrich, St. Louis, MO, United States) (70 kD, vascular space marker, 30 pmol/kg/min). […] After collecting plasma samples, rats were sacrificed via anesthetic overdose and various brain regions (cerebellum, cortex, hippocampus, hypothalamus, and brain stem) collected, homogenized and lysed in lysis buffer. Fluorescence from TRITC and FAM were measured in both plasma and brain lysates. Protein concentrations were determined in the brain lysates. Brain uptake of GLP-1-FAM and exendin-4-FAM were calculated using the following formula:
Tissue fluorescence [FAM]/Tissue weight (μg)−TissueFluorescence [TRITC]/Weight(μg)/PlasmaFluorescence [TRITC]/200(μL)×Plasma Fluorescence [FAM]/200μL
FIGURE 1 GLP-1 and GLP-1 analog exendin-4 enter various brain regions via GLP-1 receptor-mediated process. (A) Protocol. […]

[3] = system: RBMEC and astrocyte barrier; assay: Trans-endothelial GLP-1 transport (Transwell artificial BBB); type: in vitro ADME, rat; settings: exendin-(9-39) 100 nM, 10 min pre-treatment and during transport; GLP-1-FAM 100 pM; n = 7, p < 0.01
Description: The trans-endothelial GLP-1 transport was examined using a Transwell system that mimics the BBB in that RBMECs were co-cultured with astrocytes as illustrated in Figure 7A and previously described ([Gaillard et al., 2001]). Briefly, astrocytes (Thermo Fisher Scientific, Waltham, MA, United States) were seeded on the bottom and RBMECs were then seeded onto the top of the Transwell insert (6.5 mm diameter, 1 μm pore size, polyester membrane; Corning, Corning, NY, United States). Trans-endothelial electrical resistance was monitored using a volt-ohmmeter (EVOM; WPI, Sarasota, FL, United States) and EndOhm chamber (EndOhm; WPI). When the trans-endothelial electrical resistance reached its peak, the insert with double cell layers was washed twice at 37°C with PBS buffer. […] The amount of GLP-1-FAM or inulin-FITC transported to the lower chamber was determined by measuring FAM and FITC fluorescence in the lower chamber at 5, 10, and 30 min. Inulin-FITC transport was used to correct for paracellular transport and the amount of trans-endothelial transport of GLP-1-FAM was calculated using the formula:
Transcellular transport (%)=Fluorescence [FAM]/Reference [FAM]×100−Fluorescence [FITC]/Reference [FITC]×100
Reference refers to fluorescence in the lower chamber at the specified time point when the Transwell inserts had no cells seeded. To determine if this trans-endothelial transport is dose-dependent, 10, 100, and 1,000 pM GLP-1-FAM or inulin-FITC (with DDP-4 inhibitor) was loaded into the upper chamber, the amount of GLP-1-FAM or inulin-FITC in the lower chamber was determined at 10 min, and trans-endothelial transport of GLP-1 was calculated.
FIGURE 7 Trans-endothelial transport of GLP-1 is a GLP-1 receptor-mediated process. […] GLP-1-FAM or inulin-FITC transport to the lower chamber was determined by measuring FAM and FITC fluorescence in the lower chamber. […]

[4] = pre-treatment 30 min with exendin 9-39 10 nM or H89 10 μM, GLP-1-FAM 10, 100 or 1,000 pM for 3 min at 37°C, n = 3, p < 0.01 vs vehicle

Row | Molecule | effect on RBMEC uptake of GLP-1-FAM [1, 4] | effect on RBMEC uptake of GLP-1-FAM ([1]; forskolin 10 μM, 5 min, GLP-1-FAM 10 pM for 3 min, n = 6, p < 0.05 vs vehicle) | effect on amount of GLP-1-FAM fluorescence in various brain regions ([2]; GLP-1-FAM 30 pmol/kg/min in last 10 min, n = 7, p < 0.05) | effect on exendin-4-FAM fluorescence in various brain regions ([2]; exendin-4-FAM 30 pmol/kg/min in last 10 min, n = 6, p < 0.05) | effect on trans-endothelial transport of labeled GLP-1 [3]
1 | O=S(=O)(NCCNC/C=C/c1ccc(Br)cc1)c1cccc2cnccc12 [H89] | blunted |  |  |  | 
2 | C=C[C@@]1(C)CC(=O)[C@]2(O)[C@@]3(C)[C@@H](O)CCC(C)(C)[C@@H]3[C@H](O)[C@H](OC(C)=O)[C@@]2(C)O1 [forskolin] |  | significantly enhanced |  |  | 
3 | exendin-(9-39) | blunted |  | markedly decreased | almost completely abolished | inhibited

From PMC7274078, “Brain Endothelial Cells Regulate Glucagon-Like Peptide 1 Entry Into the Brain via a Receptor-Mediated Process” (Frontiers in Physiology, 2020)
